Drawing on patent US20240148744A1 (Celgene Corporation, priority 2021, published 2024), this text covers IC50 for 47 compounds.

This assay concerns Onchocerca gutturosa adult male worms. In words: Onchocerca gutturosa in vitro screening model: adult worm motility score and MTT/formazan viability. The class given is cell-based. The note with it: read-out: O. gutt Activity class.
Take `Cc1cccnc1S(=O)(=O)Nc1cccc2c(F)ccnc12` [Compound 12, N-(4-fluoro-quinolin-8-yl)-3-methylpyr-idine-2-sulfonamide]: the IC50 lay within 200 to 500 nM. With `Cc1cccnc1S(=O)(=O)Nc1cccc2c(OC(C)C)ccnc12` [Compound 19, N-(4-iso-propoxyquin-olin-8-yl)-3-methylpyr-idine-2-sulfonamide], the IC50 lay in the range of 500 to 5000 nM. In the case of `Cc1cccnc1S(=O)(=O)Nc1cccc2ncc(N3CCC3)cc12` [Compound 20, N-(3-(azet-idin-1-yl)-quinolin-5-yl)-3-meth-ylpyridine-2-sulfonamide], the IC50 was in the range of 200 to 500 nM. As for `Cc1cccnc1S(=O)(=O)Nc1cccc2ccc(-c3ccccc3)nc12` [Compound 22, 3-methyl-N-(2-phenyl-quinolin-8-yl)pyridine-2-sulfonamide], the figure is 500 to 5000 nM; as for `Cc1cccnc1S(=O)(=O)Nc1cccc2ccc(N3CCC3)nc12` [Compound 23, N-(2-(azet-idin-1-yl)-quinolin-8-yl)-3-meth-ylpyridine-2-sulfonamide], 500 to 5000 nM. Then `Cc1cccnc1S(=O)(=O)Nc1cccc2ncc(N3CCOCC3)cc12` [Compound 24, 3-methyl-N-(3-morpho-linoquinolin-5-yl)pyridine-2-sulfonamide], with 500 to 5000 nM; and `CC(C)n1ccnc1S(=O)(=O)Nc1cccc2c1CN(C1CC1)C2` [Compound 33, N-(2-cyclo-propyliso-indolin-4-yl)-1-isopropyl-1H-imidazole-2-sulfonamide], with 200 to 500 nM; and `Cc1cccnc1S(=O)(=O)Nc1cccc2c1CN(C1CC1)CC2` [Compound 36, N-(2-cyclo-propyl-1,2,3,4-tetra-hydroisoquin-olin-8-yl)-3-methylpyr-idine-2-sulfonamide], with 500 to 5000 nM. As for `CN1CCc2cccc(NS(=O)(=O)c3ncccc3C3CC3)c2C1` [Compound 37, 3-cyclo-propyl-N-(2-methyl-1,2,3,4-tetra-hydroisoquin-olin-8-yl)pyr-idine-2-sulfonamide], the figure is 200 to 500 nM. On to `Cc1cccnc1S(=O)(=O)Nc1cccc2c1N(C1CC1)CCC2` [Compound 38, N-(1-cyclo-propyl-1,2,3,4-tetra-hydroquin-olin-8-yl)-3-methylpyr-idine-2-sulfonamide], for which the IC50 lay in the range of 500 to 5000 nM. As for `CC(C)n1nccc1S(=O)(=O)Nc1cccc2c1CN(C1CC1)C2` [Compound 40, N-(2-cyclo-propyliso-indolin-4-yl)-1-isopropyl-1H-pyrazole-5-sulfonamide], the figure is 500 to 5000 nM. As for `Cc1cccnc1S(=O)(=O)Nc1cccc2c1CN(C1CC1)C2` [Compound 41, N-(2-cyclo-propyliso-indolin-4-yl)-3-methylpyr-idine-2-sulfonamide], the figure is 500 to 5000 nM; as for `Cc1cccnc1S(=O)(=O)Nc1cccc2c1CN(C)CC2` [Compound 43, 3-methyl-N-(2-methyl-1,2,3,4-tetra-hydroisoquin-olin-8-yl)pyr-idine-2-sulfonamide], under 200 nM; as for `Cc1cccnc1S(=O)(=O)Nc1cccc2c1N(C)CC2` [Compound 44, 3-methyl-N-(1-methyl-indolin-7-yl)-pyridine-2-sulfonamide], 500 to 5000 nM. Then `O=S(=O)(Nc1cccc2c1NCCC2)c1ncccc1F` [Compound 46, 3-fluoro-N-(1,2,3,4-tetra-hydroquin-olin-8-yl)-pyridine-2-sulfonamide], with 500 to 5000 nM; and `CN(C)c1cccnc1S(=O)(=O)Nc1cccc2c1CN(C1CC1)C2` [Compound 47, N-(2-cyclo-propyliso-indolin-4-yl)-3-(dimethyl-amino)pyr-idine-2-sulfonamide], with 500 to 5000 nM. For the compound `CN(C)c1cnc(S(=O)(=O)Nc2c(Cl)ccc3cccnc23)cn1` [Compound 49, N-(7-chloro-quinolin-8-yl)-5-(dimeth-ylamino)pyr-azine-2-sulfonamide], the IC50 fell in the range of 500 to 5000 nM. Then `CN(C)c1cncc(S(=O)(=O)Nc2c(Cl)ccc3cccnc23)n1` [Compound 50, N-(7-chloro-quinolin-8-yl)-6-(dimeth-ylamino)pyr-azine-2-sulfonamide], with 500 to 5000 nM; and `Cc1cccnc1S(=O)(=O)Nc1cccc2c1CN(C)C2` [Compound 51, 3-methyl-N-(2-methyl-isoindolin-4-yl)pyridine-2-sulfonamide], with under 200 nM. Then `Cc1cccnc1S(=O)(=O)Nc1cccc2c1NCCC2` [Compound 56, 3-methyl-N-(1,2,3,4-tetra-hydroquinolin-8-yl)pyridine-2-sulfonamide], with 500 to 5000 nM. Take `CCn1ccnc1S(=O)(=O)Nc1ccc(OC)c2cccnc12` [Compound 57, 1-ethyl-N-(5-methoxyquin-olin-8-yl)-1H-imidazole-2-sulfonamide]: the IC50 lay within 500 to 5000 nM. As to `Cn1cc(S(=O)(=O)Nc2ccc(F)c3cccnc23)cn1` [Compound 59, N-(5-fluoro-quinolin-8-yl)-1-meth-yl-1H-pyr-azole-4-sulfonamide], the IC50 is 500 to 5000 nM.

Take `COc1ccc(NS(=O)(=O)c2ccco2)c2ncccc12` [Compound 60, N-(5-meth-oxyquinolin-8-yl)furan-2-sulfonamide]: the IC50 was in the range of 500 to 5000 nM. Take `O=S(=O)(Nc1ccc(N2CCOCC2)c2cccnc12)c1ccco1` [Compound 61, N-(5-morph-olinoquin-olin-8-yl)-furan-2-sulfonamide]: the IC50 was in the range of 500 to 5000 nM. Regarding `O=S(=O)(Nc1ccc(N2CCOCC2)c2cccnc12)c1cn[nH]c1` [Compound 62, N-(5-morph-olinoquin-olin-8-yl)-1H-pyrazole-4-sulfonamide], the IC50 is 500 to 5000 nM. As for `O=S(=O)(Nc1ccc(F)c2cccnc12)c1cn[nH]c1` [Compound 63, N-(5-fluoro-quinolin-8-yl)-1H-pyrazole-4-sulfonamide], the figure is 500 to 5000 nM; as for `O=S(=O)(Nc1ccc(F)c2cccnc12)c1ccco1` [Compound 64, N-(5-fluoro-quinolin-8-yl)furan-2-sulfonamide], under 200 nM; as for `Cc1ccc(NS(=O)(=O)c2ccco2)c2ncccc12` [Compound 65, N-(5-methyl-quinolin-8-yl)furan-2-sulfonamide], 500 to 5000 nM. Consider `O=S(=O)(Nc1c(Cl)ccc2cccnc12)c1ncccc1C1CC1` [Compound 69, N-(7-chloro-quinolin-8-yl)-3-cyclo-propylpyr-idine-2-sulfonamide], for which the IC50 was under 200 nM. Then `Cc1nccnc1S(=O)(=O)Nc1c(Cl)ccc2cccnc12` [Compound 70, N-(7-chloro-quinolin-8-yl)-3-methyl-pyrazine-2-sulfonamide], with 500 to 5000 nM; and `N#Cc1ccnc(S(=O)(=O)Nc2c(Cl)ccc3cccnc23)c1` [Compound 71, N-(7-chloro-quinolin-8-yl)-4-cyano-pyridine-2-sulfonamide], with under 200 nM; and `O=S(=O)(Nc1c(Cl)ccc2cccnc12)c1cncc(N2CCCC2)n1` [Compound 74, N-(7-chloro-quinolin-8-yl)-6-(pyrrol-idin-1-yl)pyr-azine-2-sulfonamide], with 200 to 500 nM.

`COc1cnc(S(=O)(=O)Nc2c(Cl)ccc3cccnc23)cn1` [Compound 78, N-(7-chloro-quinolin-8-yl)-5-meth-oxypyrazine-2-sulfonamide]: the IC50 lay within 500 to 5000 nM. As for `CC(C)n1nccc1S(=O)(=O)Nc1cccc2c(Cl)ccnc12` [Compound 79, N-(4-chloro-quinolin-8-yl)-1-iso-propyl-1H-pyrazole-5-sulfonamide], the figure is under 200 nM; as for `COc1cncc(S(=O)(=O)Nc2c(Cl)ccc3cccnc23)n1` [Compound 81, N-(7-chloro-quinolin-8-yl)-6-meth-oxypyrazine-2-sulfonamide], 500 to 5000 nM. As for `N#Cc1cccc(S(=O)(=O)Nc2c(Cl)ccc3cccnc23)c1` [Compound 82, N-(7-chloro-quinolin-8-yl)-3-cyano-benzene sulfonamide], the figure is 500 to 5000 nM. Then `Cc1cc(C)cc(S(=O)(=O)Nc2cc(F)cc3cccnc23)c1` [Compound 91, N-(6-fluoro-quinolin-8-yl)-3,5-dimethyl-benzene-sulfonamide], with under 200 nM; and `NC(=O)c1cccc(S(=O)(=O)Nc2ccc(N3CCOCC3)c3cccnc23)c1` [Compound 92, 3-(N-(5-morpholino-quin-olin-8-yl)sulfamoyl)-benzamide], with 500 to 5000 nM.

Consider `Cc1ccc(S(=O)(=O)Nc2cc(C)cc3cccnc23)cc1` [Compound 93, 4-methyl-N-(6-methyl-quinolin-8-yl)benzene-sulfonamide], for which the IC50 is 200 to 500 nM. Take `O=S(=O)(Nc1cc(O)cc2cccnc12)c1ccccn1` [Compound 94, N-(6-hydroxy-quinolin-8-yl)pyridine-2-sulfonamide]: the IC50 was 500 to 5000 nM. As for `Cc1ccc(S(=O)(=O)Nc2ccc(N3CCC(O)(c4ccccc4)CC3)c3cccnc23)cc1` [Compound 95, N-(5-(4-hydroxy-4-phenylpiper-idin-1-yl)-quinolin-8-yl)-4-methyl-benzene-sulfonamide], the figure is 500 to 5000 nM; as for `Cc1ccc(S(=O)(=O)Nc2cccc3cc(C)cnc23)cc1` [Compound 96, 4-methyl-N-(3-methyl-quinolin-8-yl)benzene-sulfonamide], under 200 nM. `O=S(=O)(Nc1cc(-c2ccccc2)cc2cccnc12)c1ccccn1` [Compound 97, N-(6-phenyl-quinolin-8-yl)pyridine-2-sulfonamide]: the IC50 fell in the range of 500 to 5000 nM. Then `COc1nccnc1S(=O)(=O)Nc1c(Cl)ccc2cccnc12` [Compound 101, N-(7-chloro-quinolin-8-yl)-3-methoxypyr-azine-2-sulfon-amide], with 500 to 5000 nM; and `COc1cc(OC)cc(S(=O)(=O)Nc2cc(F)cc3cccnc23)c1` [Compound 128, N-(6-fluoro-quinolin-8-yl)-3,5-dimethoxy-benzenesulfon-amide], with under 200 nM; and `Cc1cc(NS(=O)(=O)c2nccn2C)c2ncccc2c1` [Compound 129, 1-methyl-N-(6-methyl-quinolin-8-yl)-1H-imidazole-2-sulfonamide], with under 200 nM. As for `CCc1ccc(NS(=O)(=O)c2nccn2C)c2ncccc12` [Compound 130, N-(5-ethyl-quinolin-8-yl)-1-methyl-1H-imidazole-2-sulfonamide], the figure is 500 to 5000 nM.
